Measured values as given in US10570168B2, “2′ and/or 5′ amino-acid ester phosphoramidate 3′-deoxy adenosine derivatives as anti- cancer compounds” (NuCana plc, priority 2014, dated 2020).
pIC50: −log10 of the molar value.

Legend:
Assay in all cases: Solid tumour and haematological malignancy assay (CellTiterGlo)
Assay type in all cases: cell-based
RL = details: Homo sapiens, 72 h, read-out: IC50 (absolute IC50)
Procedure, shortened: (§1)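 Cells were exposed to compound for 72 hr under standard growth conditions, and viability was then read by CellTiterGlo luminescence. Treatment used a 9-point, 3.16-fold titration in duplicate, with a lowest final concentration of 19.9 nM and 0.5% final DMSO.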

BxPC-3 = details: Homo sapiens, BXPC-3, 72 h, read-out: IC50 (absolute IC50)
Procedure, shortened: as §1

NCI-H929 = details: Homo sapiens, NCI-H929, 72 h; for pIC50: read-out: IC50 (absolute IC50)
Procedure, shortened: as §1

MOLT-4 = details: Homo sapiens, MOLT-4, 72 h, read-out: IC50 (absolute IC50)
Procedure, shortened: as §1

RPMI-8226 = details: Homo sapiens, RPMI-8226, 72 h, read-out: IC50 (absolute IC50)
Procedure, shortened: as §1

Jurkat = details: Homo sapiens, 72 h, read-out: IC50 (absolute IC50)
Procedure, shortened: as §1

HS445 = details: Hs 445, 72 h, read-out: IC50 (absolute IC50)
Procedure, shortened: as §1

SW620 = details: Homo sapiens, SW-620, 72 h, read-out: IC50 (absolute IC50)
Procedure, shortened: as §1

MV4-11 = details: Homo sapiens, MV4-11, 72 h; for pIC50: read-out: IC50 (absolute IC50)
Procedure, shortened: as §1

Z138 = details: Homo sapiens, Z-138, 72 h; for pIC50: read-out: IC50 (absolute IC50)
Procedure, shortened: as §1

THP-1 = details: Homo sapiens, THP-1, 72 h, read-out: IC50 (absolute IC50)
Procedure, shortened: as §1

HepG2 = details: Homo sapiens, HepG2, 72 h, read-out: IC50 (absolute IC50)
Procedure, shortened: (§2)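 Using duplicate wells at 0.5% final DMSO, compound effect on viability is determined by ATP-based CellTiterGlo luminescence following a 3-day incubation at 37° C.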

K562 = details: Homo sapiens, K562, 72 h; for pIC50: read-out: IC50 (absolute IC50)
Procedure, shortened: as §2

CCRFCEM = details: Homo sapiens, CCRF-CEM, 72 h; for pIC50: read-out: IC50 (absolute IC50); for Emax: read-out: MI %
Procedure, shortened: as §2

MCF7 = details: Homo sapiens, MCF7, 72 h, read-out: IC50 (absolute IC50)
Procedure, shortened: as §2

HEL92.1.7 = details: Homo sapiens, HEL 92.1.7, 72 h, read-out: IC50 (absolute IC50)
Procedure, shortened: as §2

HT29 = details: Homo sapiens, HT-29, 72 h, read-out: IC50 (absolute IC50)
Procedure, shortened: as §2

HL-60 = details: Homo sapiens, HL-60, 72 h, read-out: IC50 (absolute IC50)
Procedure, shortened: as §2

MiaPaCa-2 = details: Homo sapiens, MIA PaCa-2, 72 h, read-out: IC50 (absolute IC50)
Procedure, shortened: as §2

KG-1 = details: Homo sapiens, KG-1, 72 h; for pIC50: read-out: IC50 (absolute IC50)
Procedure, shortened: as §2

Compound: C[C@H](NP(=O)(OC[C@@H]1C[C@@H](O)[C@H](n2cnc3c(N)ncnc32)O1)Oc1cccc2ccccc12)C(=O)OCc1ccccc1 (stereo partly drawn) [B, (2S)-benzyl 2-(((((2S,4R,5R)-5-(6-amino-9H-purin-9-yl)-4-hydroxytetrahydrofuran-2-yl)methoxy)(naphthalen-1-yloxy)phosphoryl)amino)propanoate]
- pIC50 (RL): 5.30 to 7.00
- pIC50 (BxPC-3): 4.82 to 5.30
- pIC50 (NCI-H929): 5.30 to 7.00
- Emax (NCI-H929; read-out: MI %): 99%
- pIC50 (MOLT-4): 5.30 to 7.00
- pIC50 (RPMI-8226): 4.82 to 5.30
- pIC50 (Jurkat): 5.30 to 7.00
- pIC50 (HS445): 4.82 to 5.30
- pIC50 (SW620): 4.82 to 5.30
- pIC50 (MV4-11): 5.30 to 7.00
- Emax (MV4-11; read-out: MI %): 99%
- pIC50 (Z138): 4.82 to 5.30
- Emax (Z138; read-out: MI %): 100%
- pIC50 (THP-1): 4.00 to 4.82
- pIC50 (HepG2): 4.82 to 5.30
- pIC50 (K562): 5.30 to 7.00
- pIC50 (CCRFCEM): 5.30 to 7.00
- Emax (CCRFCEM): 100%
- pIC50 (MCF7): 5.30 to 7.00
- pIC50 (HEL92.1.7): 5.30 to 7.00
- pIC50 (HT29): 4.82 to 5.30
- pIC50 (HL-60): 5.30 to 7.00
- pIC50 (MiaPaCa-2): 5.30 to 7.00
- pIC50 (KG-1): 4.82 to 5.30

Compound: COC(=O)C(C)(C)NP(=O)(OC[C@@H]1C[C@@H](O)[C@H](n2cnc3c(N)ncnc32)O1)Oc1cccc2ccccc12 (stereo partly drawn) [E, Methyl 2-(((((2S,4R,5R)-5-(6-amino-9H-purin-9-yl)-4-hydroxytetrahydrofuran-2-yl)-methoxy)(naphthalen-1-yloxy)phosphoryl)amino)-2-methylpropanoate]
- pIC50 (RL): 4.82 to 5.30
- pIC50 (BxPC-3): 4.00 to 4.82
- pIC50 (NCI-H929): 4.00 to 4.82
- pIC50 (MOLT-4): 5.30 to 7.00
- pIC50 (RPMI-8226): 4.00 to 4.82
- pIC50 (Jurkat): 4.82 to 5.30
- pIC50 (HS445): 4.00 to 4.82
- pIC50 (SW620): 4.00 to 4.82
- pIC50 (MV4-11): 4.82 to 5.30
- pIC50 (Z138): 4.00 to 4.82
- pIC50 (THP-1): < 4.00
- pIC50 (HepG2): 4.00 to 4.82
- pIC50 (K562): 4.82 to 5.30
- Emax (K562; read-out: MI %): 90%
- pIC50 (CCRFCEM): 5.30 to 7.00
- Emax (CCRFCEM): 100%
- pIC50 (MCF7): 4.82 to 5.30
- pIC50 (HEL92.1.7): 4.00 to 4.82
- pIC50 (HT29): 4.00 to 4.82
- pIC50 (HL-60): 4.82 to 5.30
- pIC50 (MiaPaCa-2): 4.00 to 4.82
- pIC50 (KG-1): 4.00 to 4.82
- Emax (KG-1; read-out: MI %): 100%
